US12497614B2, “Compositions and methods for editing beta-globin for treatment of hemaglobinopathies” (Vertex Pharmaceuticals Incorporated, priority 2020, dated 2025)

Experiments:
CD34+ HSPCs [1] = test: Erythrocyte functionality: enucleation and cell-surface markers by flow cytometry (Example 5); type: cell-based, human; conditions: T107 RNP+AAV.310 alone or combined with the inhibitor
Method: Following editing, cells were differentiated to erythrocytes.
The ability of edited cells to differentiate to functional erythrocytes was assessed by determining expression of erythrocyte-associated cell surface markers and enucleation using flow cytometry on day 12 and 18 post editing. Briefly, 4×10^5 cells were obtained, and half were stained for erythrocyte cell-surface markers and half were used for detection of enucleation. For staining cell-surface markers, the cells were incubated in PBS containing 1% human serum albumin (PBS-A) and an antibody cocktail of anti-CD233(BRIC6-Band3)-FITC, anti-CD71-PE, anti-CD235a(GlyA)-PE/Cy7, and anti-CD49d (α4)-VioBlue. For detection of enucleation, 2 drops of NucRed nuclear staining reagent was added to 1 mL PBS-A, and 100 μL was added to plated cells. Following incubation, both cell samples were labeled with Sytox Blue solution (1:1000 dilution in PBS-A) for live/dead analysis. Samples were then assessed by flow cytometry

[2] = test system: HBB gene locus in CD34+ HSPCs; test: HDR efficiency with DNA-PK inhibitors for editing the HBB gene in CD34+ HSPCs; NGS (Example 4); type: cell-based, human
Method: The cells were transduced with AAV donor template for 1 hour at 37° C. prior to electroporation. AAV-encoded homology donor template referred to as “AAV.310”, which is identified by sequence in Table 8. The AAV.310 donor template encodes a SCD mutation, specifically valine at the 6th codon downstream the HBB start codon (E6V). The cells were treated with AAV at a dose of 10,000 MOI.
Edited cells were evaluated for viability using trypan blue, and for incorporation of gene-edits at 2 days post-electroporation. The efficiency of HDR repair for introducing an E6V mutation in the HBB gene was quantified by NGS assay as described in Example 1, and the frequency of INDELs induced at the T107 cut site was also evaluated by NGS analysis.
The INDELs species identified in edited cells were further evaluated to determine frequency of repair by NHEJ or MMEJ repair pathways. An INDEL of ±1 nt was considered due to NHEJ repair; a deletion of −9 nt was considered due to MMEJ repair based on the microhomology present on either side of the T107 cut site. Based on percentage of total reads corresponding to these INDEL species, the ratio of gene edits due to NHEJ and MMEJ repair was evaluated. […] Thus, reduced frequency of INDELs with treatment of compound 296 or i53 is largely due to suppression of the NHEJ repair pathway.

CD34+ HSPCs [3] = test: Cell growth and viability (trypan blue) of edited CD34+ HSPCs during differentiation (Example 5); conditions: day 0 to day 18 post-editing; inhibitor 1 or 3 μM, i53 1 μg mRNA; data not shown
Method: Briefly, frozen CD34+ HSPCs isolated from Plerixafor mobilized peripheral blood, obtained from healthy human donors were thawed. The cells were seeded in CD34 cell media at a cell density of 2×10^5 cells/mL. Cells were cultured at 37° C. under normoxic conditions (i.e., oxygen 20%). Gene-editing was performed following two days of in vitro culture. For editing, 5×10^5 CD34+ HSPCs were electroporated with RNP containing 200 μg/ml Cas9 and 200 μg/ml T107 sgRNA. […] The cells were transduced with AAV.310, 1 hour prior to electroporation, at a dose of 10,000 MOI. The cells were plated in CD34 cell medium containing Compound 296 or Compound 984 immediately following the electroporation, at a concentration of 1 μM or 3 μM for 48 hours. […] Post electroporation cells were resuspended in CD34 cell medium at a density of 2-5×10^5 cells/ml and incubated at 37° C. for 48 hours.
Following editing, cells were differentiated to erythrocytes. Briefly, cells were plated in fresh CD34 media at a density of 2×10^5 cells/mL, and re-plated at similar density in fresh CD34 media on days 3 and 5 post-editing. On day 7 and 10 post-editing, the cells were incubated in Phase II media at a density of 2.5×10^5 and 1×10^6 cells/mL respectively. On day 12 post-editing, the cells were incubated in Phase III media at a density of 1×10^6 cells/mL. On day 14 cells were plated at a density of 2×10^6 cells/ml in Phase III media and maintained till day 18 at 37° C. Cell growth was measured at various time points between day 0 and day 18 post-editing, and the percentage of viable cells was measured by staining with tryphan blue.

NBSGW mice = test: In vivo engraftment and persistence of gene-edits of CD34+ HSPCs edited with T107 RNP, AAV and inhibitors (Example 6); parameters: species or system mouse; conditions: 16 weeks, with or without inhibitor
Method: Following two days of in vitro culture, HSPCs were administered by intravenous injection to NBSGW mice at a dose of 0.5×10^6 cells per mouse. Recipient mice were treated with sublethal irradiation (100 cGy) at 1 day prior to administration of HSPCs.
Blood and bone marrow were extracted at 16 weeks following HSPC administration and were evaluated for presence of human hematopoietic cells using flow cytometry as described in Example 2. Additionally, the lineage of human CD45+ cells was determined using markers for human B cells, T cells, myeloid cells, and HSPCs as described in Example 2.
The long term persistence of gene-edited (in HBB gene) HSPCs was evaluated in genomic DNA extracted from mouse bone marrow collected at 16 weeks. The frequency of donor template-encoded gene-edits incorporated in HBB by HDR and the frequency of INDELs at the T107 cut site were quantified by NGS, and are shown in FIG. 7I and FIG. 7J respectively.

HBB gene in CD34+ HSPCs = test: In vitro editing with T107 RNP, AAV.310 or AAV.320 and inhibitors before transplantation; NGS and cell growth (Example 6); conditions: for change in cell growth if cells were edited with the inhibitor: T107 RNP+AAV.310 or AAV.320, data not shown; for frequency of HDR relative to editing with T107 RNP and AAV only / frequency of INDELs relative to editing with T107 RNP and AAV only: i53 1 μg mRNA, Compound 984 1 μM or 3 μM
Method: Briefly, frozen CD34+ HSPCs isolated from plerixafor-mobilized peripheral blood obtained from two healthy human donors were thawed and seeded in media with components as described in Example 1. The cells were maintained in culture, and gene-editing was performed following two days of culture. For editing, 5×10^5 CD34+ HSPCs were electroporated with RNP containing 20 μg SpCas9 and 20 μg T107 sgRNA. Electroporation was performed using the CA-137 program of the Lonza Amaxa™ 4D-Nucleofector™. The cells were transduced with AAV.310 or AAV.320 for 1 hour at 37° C. prior to electroporation at a dose of 10,000 MOI. The cells were electroporated and immediately plated in medium containing Compound 984 at 1 μM or 3 μM.
Cells were maintained in culture for two days following electroporation. Fold change in cell-growth between day 0 and day 2 post-electroporation was quantified.
Additionally, gene-edits in HBB were evaluated in CD34+ HSPCs following two days of in vitro culture.

[4] = T107 RNP + AAV.310 + 0.012 μM compound, 48 hours
[5] = T107 RNP + AAV.310 + 0.037 μM compound, 48 hours
[6] = T107 RNP + AAV.310 + 0.04 μM compound, 48 hours
[7] = T107 RNP + AAV.310 + 3.3 μM compound, 48 hours
[8] = T107 RNP + AAV.310 + 10 μM compound, 48 hours
[9] = T107 RNP + AAV.310 + i53 (1 μg mRNA)

Question: With [2H]c1nc(C)nc([2H])c1-c1cc(NC[C@@H](C)c2cccc3c(C(=O)NC)ccnc23)ncn1 [Compound 984] as the molecule, how does the “levels of enucleation vs control cells” value (CD34+ HSPCs [1]) read?
Answer: The value was “comparable”.

Question: And the “% HDR” value [2, 4]?
Answer: The value was 44%.

Question: And the “% INDELs” value [2, 4]?
Answer: The value was 39%.

Question: What about the “% HDR” value [2, 5] of the same molecule?
Answer: Its value is 51%.

Question: What about the “% INDELs” value [2, 5] of the same molecule?
Answer: The value was 36%.

Question: And the “% HDR” value [2, 6]?
Answer: Its value is 42%.

Question: What about the “% INDELs” value [2, 6] of the same molecule?
Answer: The value was 40%.

Question: What about the “% HDR” value [2, 7] of the same molecule?
Answer: Its value is 49%.

Question: What about the “% INDELs” value [2, 7] of the same molecule?
Answer: The value was 30%.

Question: And the “% HDR” value [2, 8]?
Answer: Its value is 48%.

Question: And the “% INDELs” value [2, 8]?
Answer: Its value is 33%.

Question: And the “reduction of the frequency of INDELs at the T107 cut site compared to control cells” value ([2]; T107 RNP+AAV.310 with DNA-PK inhibitor)?
Answer: Its value is “approximately 1.6 fold”.

Question: And the “cell growth over time or percent viability vs T107 RNP+AAV.310 edited cells” value (CD34+ HSPCs [3])?
Answer: Its value is “No difference”.

Question: And the “percent chimerism in mouse bone marrow and blood” value (NBSGW mice)?
Answer: The value was “comparable”.

Question: What about the “change in cell growth if cells were edited with the inhibitor” value (HBB gene in CD34+ HSPCs) of the same molecule?
Answer: Its value is “no substantial change”.

Question: What about the “frequency of HDR relative to editing with T107 RNP and AAV only” value (HBB gene in CD34+ HSPCs) of the same molecule?
Answer: Its value is “increased”.

Question: What about the “frequency of INDELs relative to editing with T107 RNP and AAV only” value (HBB gene in CD34+ HSPCs) of the same molecule?
Answer: The value was “decreased”.

Question: “i53: polypeptide inhibitor of 53BP1 (SEQ ID NO: 11), introduced as an mRNA-encoded protein (ORF SEQ ID NO: 10)” was tested. Which “levels of enucleation vs control cells” value (CD34+ HSPCs [1]) did it give?
Answer: The value was “comparable”.

Question: And the “% HDR” value [2, 9]?
Answer: The value was 35%.

Question: And the “% INDELs” value [2, 9]?
Answer: The value was 42%.

Question: And the “INDEL species due to MMEJ repair (deletion of −9 nt)” value ([2]; T107 RNP+AAV.310, Compound 296 at 10 μM, i53 at 1 μg mRNA)?
Answer: The value was “did not affect”.

Question: And the “cell growth over time or percent viability vs T107 RNP+AAV.310 edited cells” value (CD34+ HSPCs [3])?
Answer: The value was “No difference”.

Question: And the “percent chimerism in mouse bone marrow and blood” value (NBSGW mice)?
Answer: The value was “comparable”.

Question: What about the “change in cell growth if cells were edited with the inhibitor” value (HBB gene in CD34+ HSPCs) of the same molecule?
Answer: The value was “no substantial change”.

Question: And the “frequency of HDR relative to editing with T107 RNP and AAV only” value (HBB gene in CD34+ HSPCs)?
Answer: Its value is “increased”.

Question: What about the “frequency of INDELs relative to editing with T107 RNP and AAV only” value (HBB gene in CD34+ HSPCs) of the same molecule?
Answer: Its value is “decreased”.
